The results in this text go back to ChEMBL document CHEMBL1201862, “PubChem BioAssay data set” (2004).

Structures are written as SMILES. Activity calls are given as the source filed them. Where only a bound is given, the exact number is not on record here.

The term EC50 denotes the concentration needed to bring the measured effect to its halfway point. As usually defined, the AC50 is the concentration at which the activity in the assay is half-maximal.

Data set [1] concerns Streptococcus sp. 'group A'. In words: Streptococcus pyogenes SK(-)GAS viability under kanamycin – luminescence, BacTiterGlo, confirmation, counter-screen for streptokinase expression inhibitor project, dose response (AID 1900). It counts as functional, organism-based. In general terms: A counterscreen serves to expose hits that act by an unwanted route or on another target.

The next data set deals with Streptococcus. Nature of the data set: GAS UMAA2166 growth inhibition – luminescence, BacTiterGlo, counter-screen for streptokinase expression inhibitor project, dose response (AID 1915).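 Also: potency for reduction of bacterial viability or growth.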 It counts as functional, organism-based.
Another data set addresses T1, Streptokinase A (Streptococcus pyogenes serotype M1, UniProt P10520).
T1 sequence (P10520 whole entry): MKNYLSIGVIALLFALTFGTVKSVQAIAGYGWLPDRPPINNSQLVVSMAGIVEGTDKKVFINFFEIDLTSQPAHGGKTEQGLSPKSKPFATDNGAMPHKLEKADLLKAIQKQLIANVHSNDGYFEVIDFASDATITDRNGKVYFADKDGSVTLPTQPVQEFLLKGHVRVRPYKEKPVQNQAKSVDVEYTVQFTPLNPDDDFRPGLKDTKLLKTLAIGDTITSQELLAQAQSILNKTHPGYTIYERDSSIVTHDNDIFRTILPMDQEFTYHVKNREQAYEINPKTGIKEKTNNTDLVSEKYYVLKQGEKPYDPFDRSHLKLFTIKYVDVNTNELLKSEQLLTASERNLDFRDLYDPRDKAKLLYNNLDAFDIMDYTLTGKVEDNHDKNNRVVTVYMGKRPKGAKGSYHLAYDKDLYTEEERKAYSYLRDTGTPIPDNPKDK
Nature of the data set: viability-normalized secreted streptokinase activity reduction – plasminogen activation absorbance, OD405, dose response (AID 1914).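 Also: secreted streptokinase activity via plasminogen activation per viability signal from cell pellet.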 It counts as functional, Streptococcus pyogenes M1 GAS.

For another data set, the target named is Cytochrome P450 2C19 (Homo sapiens, UniProt P33261). In words: Cytochrome panel assay with activity outcomes. Panel member name: p450-cyp2c19 Compounds with AC50 equal or less than 10 uM are considered active. It counts as functional.
Sequence of Cytochrome P450 2C19 (P33261 whole entry): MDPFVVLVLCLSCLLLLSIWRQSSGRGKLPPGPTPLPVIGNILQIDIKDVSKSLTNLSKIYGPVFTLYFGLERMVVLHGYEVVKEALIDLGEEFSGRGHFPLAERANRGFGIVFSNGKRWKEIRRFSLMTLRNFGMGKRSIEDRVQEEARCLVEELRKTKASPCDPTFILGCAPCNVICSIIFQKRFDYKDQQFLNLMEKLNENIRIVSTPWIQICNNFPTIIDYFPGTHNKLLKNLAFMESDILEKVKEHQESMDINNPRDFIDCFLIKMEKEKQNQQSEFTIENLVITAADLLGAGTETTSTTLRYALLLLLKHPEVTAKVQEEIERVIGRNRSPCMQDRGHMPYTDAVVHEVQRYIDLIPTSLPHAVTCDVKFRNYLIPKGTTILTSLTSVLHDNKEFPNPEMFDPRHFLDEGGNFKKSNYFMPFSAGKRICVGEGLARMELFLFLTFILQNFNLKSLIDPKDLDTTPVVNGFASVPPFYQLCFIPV
For the next data set, the target named is Cytochrome P450 2C9 (Homo sapiens, UniProt P11712).
Sequence of Cytochrome P450 2C9 (P11712 whole entry): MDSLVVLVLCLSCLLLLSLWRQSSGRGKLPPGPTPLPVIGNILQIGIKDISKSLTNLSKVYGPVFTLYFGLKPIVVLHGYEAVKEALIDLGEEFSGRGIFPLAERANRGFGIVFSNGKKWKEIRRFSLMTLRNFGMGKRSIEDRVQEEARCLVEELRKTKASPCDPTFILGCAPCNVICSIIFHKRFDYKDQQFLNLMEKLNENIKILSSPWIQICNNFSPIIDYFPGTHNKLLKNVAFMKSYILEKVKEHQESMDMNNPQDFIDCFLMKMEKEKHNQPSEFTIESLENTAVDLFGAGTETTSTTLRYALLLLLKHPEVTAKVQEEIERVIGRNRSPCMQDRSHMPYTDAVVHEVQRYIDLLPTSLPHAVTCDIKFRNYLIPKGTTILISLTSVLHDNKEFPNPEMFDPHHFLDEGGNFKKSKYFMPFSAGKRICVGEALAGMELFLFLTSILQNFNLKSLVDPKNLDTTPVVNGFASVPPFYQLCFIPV
The target in data set [2] is T2, Heat shock factor protein 1 (Mus musculus, UniProt P38532).
T2 sequence (P38532 whole entry): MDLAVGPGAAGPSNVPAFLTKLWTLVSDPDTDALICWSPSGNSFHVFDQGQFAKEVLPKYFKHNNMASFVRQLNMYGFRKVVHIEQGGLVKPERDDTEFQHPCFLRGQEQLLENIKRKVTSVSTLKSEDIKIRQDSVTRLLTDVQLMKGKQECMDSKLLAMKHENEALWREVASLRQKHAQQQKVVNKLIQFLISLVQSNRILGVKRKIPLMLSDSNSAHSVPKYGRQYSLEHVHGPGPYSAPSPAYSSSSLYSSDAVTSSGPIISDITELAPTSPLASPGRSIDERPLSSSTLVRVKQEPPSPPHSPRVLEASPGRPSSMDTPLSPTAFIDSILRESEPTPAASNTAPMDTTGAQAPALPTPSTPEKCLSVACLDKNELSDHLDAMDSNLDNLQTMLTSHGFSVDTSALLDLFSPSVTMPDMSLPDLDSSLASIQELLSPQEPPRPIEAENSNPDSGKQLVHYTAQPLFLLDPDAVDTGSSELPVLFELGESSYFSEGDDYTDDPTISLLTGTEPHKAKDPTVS
In words: decrease of HSF1-responsive luciferase luminescence – cell-based, NIH3T3, dose retest, confirmation (AID 2382).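 Also: NIH3T3 fibroblasts with HSF1-driven luciferase reporter stressed by proteasome inhibitor MG132; luminescence from HSF1-driven luciferase expression after 8 hours of MG132 stress.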 It counts as functional.

A short description of data set [3]: Trypanosoma cruzi growth suppression in host cells – NIH3T3 host cells, beta-gal luminescence, confirmation (AID 2044).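 Also: intracellular parasites grown in NIH/3T3 mouse fibroblasts as host cells; luminescent beta-galactosidase reporter signal from transgenic T. cruzi replicating inside host cells; inhibitors lower the luminescence signal.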 It counts as functional, cell-based.
Data set [4] in a line: NIH3T3 cell viability loss – ATP luminescence, mouse fibroblasts, counter-screen, dose response (AID 2010).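 Also: cells exposed to compound for about 90 hours before reading.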 It counts as functional, cell-based.

In the case of `C=CCO/C(O)=C1\C(C)=NC(SCC)=C(C#N)C1c1ccc(Cl)cc1` (stereo unspecified), the EC50 in data set [1] was 4.9 µM (active); in the data set on Streptococcus, 17.6 µM (active); at Streptokinase A, 8.34 µM (active).

In the case of `C[C@]12CC[C@@H]3C(=CCc4cc(O)ccc43)[C@@H]1CCC2=O`, the AC50 at Cytochrome P450 2C19 (read-out: AC50) is 7.94 µM (inconclusive).

Consider `CCS(=O)(=O)c1nc(S(=O)(=O)c2ccc(C)cc2)c(NCCN2CCOCC2)s1`, for which the EC50 (in data set [1]; in the data set with Streptococcus; at Streptokinase A) was > 150 µM (not active) in each case.

Regarding `O=C(O)CCC(=O)N1CCc2cc(S(=O)(=O)NCc3cccs3)ccc21`, the concentration at half-maximal activity (AC50) on Cytochrome P450 2C9 is 31.6 µM (inconclusive); at Cytochrome P450 2C19 (read-out: AC50) it was 25.1 µM (inconclusive).

Take `Cc1ccc(CN2C(=O)CCC2C(=O)NCc2cccnc2)cc1` (stereo unspecified): the AC50 at Cytochrome P450 2C9 was 28.2 µM (inconclusive).

Turning to `CCN(CC)c1ccc(CNc2nc3ccccc3n2CCN2CCOCC2)cc1`, the concentration for a half-maximal effect (EC50) in data set [2] was > 195 µM (not active).

For `Cc1cccc(C(=O)NC2CCN(C(=O)N3CCOCC3)CC2)c1`, the AC50 at Cytochrome P450 2C19 (read-out: AC50) is 31.6 µM (inconclusive).

As to `Cn1ncc(Cl)c1C(=O)N1CCC2(CC1)OCCO2`, the EC50 (in data set [1]; in the data set on Streptococcus; at Streptokinase A) was > 150 µM (not active) in each case.

In the case of `CCn1cnc2c1c(=O)n(CC(=O)Nc1cc(C)on1)c(=O)n2Cc1ccccc1`, the EC50 (in data set [1]; with Streptococcus; at Streptokinase A) was > 150 µM (not active) throughout.

As for `COc1ccc(C(=O)N2CCC3(CCN(Cc4ccncc4)CC3)CC2)cc1`, the AC50 at Cytochrome P450 2C9 was 7.94 µM (inconclusive).

In the case of `CCOc1nn(-c2ccc(Cl)cc2)c(O)c1/C=N/c1ccc(Cl)cc1`, the AC50 on Cytochrome P450 2C9 is 12.6 µM (inconclusive).

Consider `C[C@@H](CCCCC(=O)Nc1ccc(C(F)(F)F)cc1)NCCc1c[nH]cn1`, for which the AC50 at Cytochrome P450 2C19 (read-out: AC50) is 15.8 µM (inconclusive).

On to `Clc1ccc(COn2c(-c3ccc(Cl)cc3)nc3ccccc32)cc1`, for which the EC50 in data set [1] is 8.35 µM (active); with Streptococcus, 10.8 µM (active); on Streptokinase A, > 50 µM (not active).

Regarding `CCCCN(C)CC(O)Cn1cc(/C=C/C(=O)c2ccc(OCC)cc2)c2ccccc21` (stereo unspecified), the EC50 in data set [3] is 0.154 µM (active); in data set [4], 6.17 µM (active).

Regarding `CCOc1ccc(CCNC(=O)c2cc(-c3ccccc3)c(N3CCOCC3)s2)cc1`, the EC50 was 1.45 µM (active) in data set [3] and > 60 µM (not active) in data set [4].

As for `O=C(O)CSc1ccn(Cc2ccccc2)c1`, the AC50 result on Cytochrome P450 2C19 is recorded as “inconclusive”.

Consider `CN1CCN(C(=O)c2ccc3c(=O)n4c(nc3c2)CCCCC4)CC1`, for which, on Cytochrome P450 2C19 (read-out: AC50), the AC50 was 10 µM (inconclusive).

On to `CCOc1cccc(N(C(=O)c2ccco2)C(C(=O)NC2CCCC2)c2cccnc2)c1` (stereo unspecified), for which the EC50 (in data set [1]; in the data set on Streptococcus; at Streptokinase A) was > 150 µM (not active) in each case.

With `CCCCCC(=O)NNC(=O)c1c(O)c2ccccc2n(CC)c1=O`, the half-maximal effective concentration (EC50) was 7.72 µM (active) in data set [1], 19.1 µM (active) in the data set with Streptococcus and > 50 µM (not active) on Streptokinase A.

With `Oc1cc(CN2COc3ccccc32)c(O)cc1CNC1CCCCC1`, the AC50 at Cytochrome P450 2C9 is 6.31 µM (inconclusive); at Cytochrome P450 2C19 (read-out: AC50) it was 1.26 µM (inconclusive).

For the compound `Cc1[nH]c2ccccc2c1/C=C/c1nc2ccccc2c(=O)n1-c1cccc([N+](=O)[O-])c1`, in data set [2], the EC50 was > 195 µM (not active).

Take `O=C(c1cnccn1)N1CCC2(CC1)CN(Cc1ccncc1)C2`: the AC50 at Cytochrome P450 2C9 was 31.6 µM (inconclusive).

Regarding `N#Cc1cccc(-c2cc(NCc3cccnc3)ncn2)c1`, the AC50 at Cytochrome P450 2C19 (read-out: AC50) is 15.8 µM (inconclusive).

As to `c1ccc(C(NCCNC(c2ccccc2)c2ccccc2)c2ccccc2)cc1`, the EC50 in data set [1] was 1.51 µM (active); in the data set on Streptococcus, 20.8 µM (active); at Streptokinase A it was 12 µM (active).

Regarding `CCN(CC)CCCSc1nc2ccccc2s1`, the figures for the EC50 in data set [3] and in data set [4] were 0.445 µM (active) and > 30 µM (not active), respectively.

As to `COc1ccc(OC)c(NC(=O)NCc2cccnc2)c1`, the EC50 (in data set [1]; with Streptococcus; at Streptokinase A) was > 150 µM (not active) each time.

Turning to `CCC(=O)n1nc(-c2cccnc2)nc1NCc1cccs1`, the EC50 in data set [2] is listed as > 195 µM (not active).

As for `CC(=O)Oc1ccc2c(c1)CC[C@@H]1[C@@H]2CC[C@]2(C)[C@@H](O)CC[C@@H]12` [ESTRADIOL ACETATE], the 50% effective concentration (EC50) in data set [2] is > 195 µM (not active).

As to `CCOc1ccc(-n2c(C)cc(/C=C3/C(=N)N4C(=NC3=O)SN=C4S(C)(=O)=O)c2C)cc1`, the EC50 in data set [1] is 0.599 µM (active); with Streptococcus it was 17.5 µM (active); on Streptokinase A it was > 150 µM (not active).

On to `Clc1ccc(/C=N/N=C(/Nc2ccccc2)c2ccccn2)c(Cl)c1`, for which the EC50 in data set [1] was 10.9 µM (active); with Streptococcus, 30.2 µM (active); at Streptokinase A it was > 150 µM (not active).

For the compound `O=C(CCc1nc(-c2cccs2)no1)NCc1ccc(F)cc1Cl`, the EC50 in data set [2] is recorded as > 195 µM (not active).

For the compound `CN1C(C(=O)Nc2ccc(OC(F)(F)F)cc2)=CC(c2cccs2)=NS1(=O)=O`, the EC50 in data set [2] was 62.2 µM (active).

Consider `NS(=O)(=O)c1ccc(/N=N\c2ccc(O)c(C(=O)O)c2)cc1`, for which the AC50 on Cytochrome P450 2C9 is 1 µM (inconclusive).

Turning to `Cc1cc(C)n(-c2cc(N3CCN(S(=O)(=O)c4ccc(C)c(C)c4)CC3)ccc2[N+](=O)[O-])n1`, the AC50 at Cytochrome P450 2C9 was 2.24 µM (inconclusive).

Turning to `CC1=NN(C(N)=S)C(=O)C1N=Nc1c(C)cc(C)cc1C` (stereo unspecified), the EC50 in data set [1] is 5.14 µM (active); in the data set on Streptococcus, > 150 µM (not active); at Streptokinase A, > 150 µM (not active).

`CCOc1ccc(-n2c(SCc3nc(-c4cccs4)no3)nnc2-c2ccncc2)cc1`: the EC50 in data set [3] was 1.25 µM (active); in data set [4], > 60 µM (not active).

Take `O=C(Nc1cc(Sc2ccccn2)cc([N+](=O)[O-])c1)c1cccc(Cl)c1`: the EC50 in data set [3] was 0.625 µM (active); in data set [4], > 60 µM (not active).

Regarding `COc1ccc(-c2cc3nc(C)c(CCC(=O)NCc4ccc(F)cc4)c(C)n3n2)c(OC)c1`, the EC50 was 1.33 µM (active) in data set [3] and > 60 µM (inconclusive) in data set [4].

For the compound `CNC(=O)C(=O)NCC1OCCN1S(=O)(=O)c1ccc(OC)c(OC)c1` (stereo unspecified), the EC50 (in data set [1]; in the data set on Streptococcus; on Streptokinase A) was > 150 µM (not active) each time.

As to `CC(=O)OCC1=C(C(=O)O)N2C(=O)C(NC(=O)Cn3nc(C(F)F)c(Cl)c3C)C2SC1` (stereo unspecified), the EC50 in data set [1] was < 0.06 µM (active); with Streptococcus, 0.111 µM (active).

Turning to `COCCOC(=O)C1=C(C)N=C(C)/C(=C(/O)OC(C)C)C1c1cccc([N+](=O)[O-])c1` (stereo unspecified), the EC50 in data set [3] is 1.31 µM (active); in data set [4] it was > 60 µM (not active).

Regarding `COc1ccc(C(=O)C2CCCN(Cc3cnc(N4CCOCC4)s3)C2)c(OC)c1` (stereo unspecified), the EC50 in data set [3] is 0.991 µM (active); in data set [4] it was > 60 µM (not active).

Consider `COC(=O)[C@H](Cc1ccccc1)NC(=O)[C@@H](C)CO`, for which, on Cytochrome P450 2C9, the AC50 was 3.98 µM (inconclusive).

In the case of `COc1ccc(O[C@H]2C=C[C@@H](c3ccccc3)O[C@H]2COC(=O)CC/C(C)=N\O[C@@H](C)c2cc(-c3c(C)cc(C)cc3C)no2)cc1`, the AC50 on Cytochrome P450 2C9 is 1.58 µM (inconclusive).

Consider `COC(=O)c1cc(C(=O)Nc2ccc(S(=O)(=O)NC(C)(C)C)cc2)cc([N+](=O)[O-])c1`, for which the results for the EC50 in data set [3] and in data set [4] were 0.797 µM (active) and > 60 µM (inconclusive), respectively.

With `Cc1ccc(NC(=O)C2CCN(S(C)(=O)=O)CC2)cc1`, on Cytochrome P450 2C19 (read-out: AC50), the AC50 is 20 µM (inconclusive).

With `COc1ccc2nc(/N=C\N(C)C)sc2c1`, the figures for the AC50 on Cytochrome P450 2C9 and on Cytochrome P450 2C19 (read-out: AC50) were 0.00562 µM (inconclusive) and 22.4 µM (inconclusive), respectively.
